A value given as a limit tells only on which side of the number the result lay.

For data set [1], the target named is T1, human calcium-sensing receptor (CaSR) (Homo sapiens, UniProt P41180).
T1 construct: expressed in transfected cells
T1 sequence (P41180 20-1078): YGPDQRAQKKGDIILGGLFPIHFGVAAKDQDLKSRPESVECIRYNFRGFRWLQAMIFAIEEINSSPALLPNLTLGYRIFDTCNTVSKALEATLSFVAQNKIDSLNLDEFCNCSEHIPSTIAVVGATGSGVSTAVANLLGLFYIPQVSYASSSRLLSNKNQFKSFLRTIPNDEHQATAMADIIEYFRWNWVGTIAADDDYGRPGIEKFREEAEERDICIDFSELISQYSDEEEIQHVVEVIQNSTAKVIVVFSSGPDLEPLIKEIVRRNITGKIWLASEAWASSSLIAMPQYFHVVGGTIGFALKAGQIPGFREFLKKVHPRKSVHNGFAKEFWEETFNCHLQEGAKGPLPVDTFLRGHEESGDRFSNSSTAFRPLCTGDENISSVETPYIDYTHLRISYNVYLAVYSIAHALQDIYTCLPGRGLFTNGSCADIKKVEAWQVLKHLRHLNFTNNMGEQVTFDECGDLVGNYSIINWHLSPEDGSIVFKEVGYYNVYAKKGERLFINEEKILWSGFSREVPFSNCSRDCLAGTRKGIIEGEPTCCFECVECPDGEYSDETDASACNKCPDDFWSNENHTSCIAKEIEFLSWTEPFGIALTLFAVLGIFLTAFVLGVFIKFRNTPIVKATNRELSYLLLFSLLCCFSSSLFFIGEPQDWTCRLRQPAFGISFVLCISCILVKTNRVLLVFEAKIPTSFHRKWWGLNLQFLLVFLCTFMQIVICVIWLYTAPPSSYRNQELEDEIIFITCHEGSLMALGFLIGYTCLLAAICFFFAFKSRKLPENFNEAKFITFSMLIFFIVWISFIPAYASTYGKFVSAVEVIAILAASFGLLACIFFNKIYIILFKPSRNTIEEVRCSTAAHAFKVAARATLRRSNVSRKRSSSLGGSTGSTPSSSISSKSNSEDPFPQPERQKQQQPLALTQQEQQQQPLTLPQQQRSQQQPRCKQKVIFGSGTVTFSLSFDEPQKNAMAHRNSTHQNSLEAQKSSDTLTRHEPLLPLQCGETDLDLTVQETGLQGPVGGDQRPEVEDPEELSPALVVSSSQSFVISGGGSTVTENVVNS
The experiment in a line: intracellular Ca assay, CaSR antagonist activity in HEK293/hCaSR cells. Conditions: Fura2-AM, inhibition of response to calcium chloride ligand solution, read-out: IC50 values according to the intracellular Ca assay (CaSR antagonist activity). The data set is classed as cell-based. In outline: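 HEK293/hCaSR cells were loaded with Fura2-AM and pre-incubated with compound for 160 s at 37° C in HEPES buffer (pH 7.4, 0.8 mM CaCl2), then challenged with calcium ligand solution. Read-out was the peak 340/380 nm fluorescence ratio; inhibition is relative to no-compound (0%) and no-calcium-ligand (100%) controls.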

For data set [2], the system named is PTH concentration in blood. It is filed as in vivo. The note with it: for death or abnormality of the rat administered with the compounds: 0.1-100 mg/kg intravenous or oral; for PTH concentration in blood after 30 minutes / dose dependence of PTH concentration increase / PTH concentration in blood 5 minutes after the intravenous administration: rat, 0.1-100 mg/kg; for PTH concentration in blood 5 minutes after the intravenous administration: Rat Intact PTH ELISA, versus normal value. The procedure:
Compounds of Exp. 3-49, Exp. 3-57, Exp. 3-93, Exp. 3-95, Exp. 3-102, Exp. 3-106, Exp. 8-5, Exp. 10-1 and Exp. 10-25 were chosen as a test compound. Each of them was either dissolved or suspended in physiological saline or distilled water containing 1-20% DMSO, 5% CremophorEL, 10-40% PEG300, etc. and administered intravenously (tail vein or femoral vein) or orally administered to a 7 week to 10 week old male SD-IGS rat (Nippon Charles-River) with dosage of 0.1-100 mg/kg. After that, blood sample was taken from subclavian vein over the time and serum was separated. Concentration of PTH in blood was measured using Rat Intact PTH ELISA Kit (manufactured by Immutopics) to evaluate an activity of increasing PTH concentration in blood. […] Therefore, the safety of these compounds was confirmed again.

The test system of data set [3] is PTH concentration in blood. The note with it: single oral administration, rat; cited from earlier work.
For data set [4] the following is noted: oral everyday for eight weeks, rat with removed ovary; cited from earlier work.
The conditions of data set [5]: 20 μg subcutaneously everyday for 19 months in average; cited from earlier work.
The conditions of data set [6]: PTH 20 μg subcutaneous everyday; ALN 10 mg oral everyday; cited from earlier work.

By IC50 is commonly meant the midpoint of a concentration-inhibition curve. In the case of `CN(C[C@H](O)CNC(C)(C)CC1Cc2ccccc2C1)S(=O)(=O)c1cccc(-c2ccc(CCC(=O)O)cc2)c1` [Exp. 3-57, (R)-3-(3′ (N-(3-(1-(2,3-dihydro-1H-inden-2-yl)-2-methylpropan-2-ylamino)-2-hydroxypropyl)-N-methylsulfamoyl)biphenyl-4-yl)propionic acid], the half-maximal inhibitory concentration (IC50) in data set [1] was in the range of 300 to 1000 nM. In addition, in data set [2], the “death or abnormality of the rat administered with the compounds” value (from here on “death or abnormality”) is listed as “no death or abnormality was found”, the “PTH concentration in blood after 30 minutes” value was “returned to a normal value”, the “dose dependence of PTH concentration increase” value was “dependent on the administration amount of the compound” and the “PTH concentration in blood 5 minutes after the intravenous administration” value (shortened to “PTH concentration in blood 5 minutes”) was “increased at least twice the normal value”.
Regarding `CN(C[C@H](O)CNC(C)(C)CC1Cc2ccccc2C1)S(=O)(=O)c1cc(-c2ccc(CCC(=O)O)cc2)cc(C(F)(F)F)c1` [Exp. 3-93, (R)-3-(3′-(N-(3-(1-(2,3-dihydro-1H-inden-2-yl)-2-methylpropan-2-ylamino)-2-hydroxypropyl)-N-methylsulfamoyl)-5′-(trifluoromethyl)biphenyl-4-yl)propionic acid], the IC50 in data set [1] was no more than 300 nM. Besides, in data set [2], the “death or abnormality” value is recorded as “no death or abnormality was found”, the “PTH concentration in blood after 30 minutes” value was “returned to a normal value”, the “dose dependence of PTH concentration increase” value was “dependent on the administration amount of the compound” and the “PTH concentration in blood 5 minutes” value is “increased at least twice the normal value”.
Turning to `CN(C[C@H](O)CNC(C)(C)CC1Cc2ccccc2C1)S(=O)(=O)c1ccc(-c2ccc(CCC(=O)O)cc2)c(Cl)c1` [Exp. 3-106, (R)-3-(2′-chloro-4′-(N-(3-(1-(2,3-dihydro-1H-inden-2-yl)-2-methylpropan-2-ylamino)-2-hydroxypropyl)-N-methylsulfamoyl)biphenyl-4-yl)propionic acid], the half-inhibitory concentration (IC50) in data set [1] was no more than 300 nM. In addition, in data set [2], the “death or abnormality” value is listed as “no death or abnormality was found”, the “PTH concentration in blood after 30 minutes” value is given as “returned to a normal value”, the “dose dependence of PTH concentration increase” value is given as “dependent on the administration amount of the compound” and the “PTH concentration in blood 5 minutes” value is “increased at least twice the normal value”.
Take `CN(C[C@H](O)CNC(C)(C)CCCc1ccccc1)S(=O)(=O)c1cc(CCC(=O)O)cc(C(F)(F)F)c1` [Exp. 8-5, (R)-3-(3-(N-(2-hydroxy-3-(2-methyl-5-phenylpentan-2-ylamino)propyl)-N-methylsulfamoyl)-5-(trifluoromethyl)phenyl)propionic acid]: in data set [1], the IC50 is no more than 300 nM. Further, in data set [2], the “death or abnormality” value is reported as “no death or abnormality was found”, the “PTH concentration in blood after 30 minutes” value is reported as “returned to a normal value”, the “dose dependence of PTH concentration increase” value is “dependent on the administration amount of the compound” and the “PTH concentration in blood 5 minutes” value was “increased at least twice the normal value”.
On to `CC(C)(Cc1ccc2ccccc2c1)NC[C@@H](O)COc1cccc(Cl)c1C#N` [NPS2143], for which the “PTH concentration in blood” value in data set [3] was “continuously increased”. Moreover, in data set [4], the “bone formation evaluated by bone morphometry” value was “increased” and the bone mineral density entry was “remained almost the same”.

B1: PTH: parathyroid hormone (PTH) preparation, a peptide preparation injected subcutaneously (peptide, UniProt P01270 32-115, looked up)
Parathyroid hormone: SVSEIQLMHNLGKHLNSMERVEWLRKKLQDVHNFVALGAPLAPRDAGSQRPRKKEDNVLVESHEKSLGEADKADVNVLTKAKSQ
modifications: Parathyroid hormone
notes: parathyroid hormone (PTH) preparation, a peptide preparation injected subcutaneously
Take B1: in data set [5], the “bone mineral density increase in lumbar spine” value is reported as 9.7%, the “bone mineral density increase in neck of femur” value is listed as 2.8%, the “inhibition of frequency of occurrence of new vertebral body fracture” value is 65% and the “inhibition of frequency of occurrence of non-vertebral body fracture” value is reported as 53%. Moreover, the “increase of bone mineral density of lumbar spine 18 months after the administration” value in data set [6] was 10.3%.

Source of the values: US8039514B2, “Sulfonamide compounds and use thereof” (Asahi Kasei Pharma Corporation, priority 2008, dated 2011).
